According to PMC13338763, “Harnessing albumin as a carrier for the delivery of anti-HIV drugs to the lymphatic system” (Acta biomaterialia, 2025):
≈ marks a conversion by molar mass, not a printed value.

Tests used:
BSA = BSA (Bos taurus, UniProt P02769); assay: Gel retardation study with BSA; format: binding, bovine; details: in words
Description: Twenty (20) μg EB, hEB, hEB-platin, or hEB-DTG were mixed with or without various amounts of BSA, globulin, fibrinogen or FBS in 200 μL saline water, then 40 μL of the mixed solution were loaded to 1.5 % agarose gel and run under 120 V for 30 min.

HUVEC monolayer = assay: Transwell study: transport across a HUVEC monolayer, flow cytometry of HEK293T cells in lower chamber; format: cell-based; details: albumin-bound, 8 h, in words
Description: HEK293T were seeded to 6-well plates as lower chamber and HUVEC were seeded to Corning (NY, USA) 6-well plate inserts (0.4 μm pore size) in another plate as upper chamber, respectively. After incubation and the cell layer on the upper chamber became intact, the culture medium in the inserts was replaced by fresh medium containing 0, 5 or 20 μg/mL filipin and 0 or 10 μg/mL LPS for overnight incubation. Next, the culture medium in the inserts was replaced with fresh medium containing 10 μM EB, hEB or hEB-DTG and 2 mg/mL BSA, then the inserts were moved to the wells cultured with HEK293T cells for incubation of 8 h at 37 °C. After that, HEK293T cells in the lower chambers were washed with cold PBS.
EB signals in HEK293T cells were quantified by flow cytometry. Fluorescence was examined at an excitation wavelength of 532 nm and an emission wavelength of 660 nm. 10 × 10^4 events were collected for each sample.

HEK293T cells = assay: Cellular uptake study in vitro (flow cytometry); format: cell-based; details: in words
Description: HEK293T or HUVEC cells were seeded to 6-well plates. After overnight incubation, the culture medium was replaced by fresh medium containing 10 μM EB and 2, 5, or 20 mg/mL BSA for incubation of 0.5, 1 or 3 h at 37 °C. Later, cells were washed with cold PBS and fixed with PBS containing 4 % (w/v) formaldehyde.
Cellular uptake of different treatments was quantified by flow cytometry. Fluorescence was examined at an excitation wavelength of 532 nm and an emission wavelength of 660 nm. 10 × 10^4 events were collected for each sample.

Aqueous solubility = format: physicochemical; details: water
[1] = PK study: DTG in serum by HPLC-MS; format: in vivo, mice
Description: Five (5) mg/kg DTG, or hEB-DTG containing equivalent amount of DTG were i.v. injected into mice. After 1, 4, 12, 24 or 48 h, serum and LNs were collected. Samples were homogenized and vortex in 1 mL mixture of water and methanol (1/1, v/v), and then another 1 mL mixture of methanol and acetonitrile (1/1, v/v) was added for extraction. After centrifugation at 12,500 g for 10 min, the supernatants were collected for measurement under HPLC-MS with a previously reported method. For hydrolysis of the ester bond in hEB-DTG to release free DTG, the biological samples suspension mentioned above were incubated in 300 mg/mL guanidine hydrochloride solution at 80 °C for 24 h before extraction.

HIV-WT virus = assay: Drug susceptibility assay (luciferase reporter in TZM-bl cells); format: cell-based, human immunodeficiency virus; details: TZM-bl cells infected with HIV-WT, 48 h
Description: DTG and hEB-DTG luciferase expression levels were measured at different concentrations against TZM-bl reporter cell line in the presence of HIV-WT virus using the Britelite Plus Ultra-High Sensitivity Luminescence Reporter Gene Assay System (Revvity, MA, USA) according to the manufacturer’s protocol. TZM-bl cells were seeded in clear bottom white 96-well plate in a total volume of 200 μl DMEM-10 complete (+ 10 % FBS + 1 % penicillin/streptomycin) at a density of 1 × 10^4 cells/well. After 24 h, the cells were infected with the HIV-WT virus and treated with DTG and hEB-DTG in a concentration range (serial diluted 1:100) from 3 × 10^−1 mg/mL to 3 × 10^−15 mg/mL in PRF-10 complete media (+10 % FBS + 1 % penicillin/streptomycin). After 48 h of incubation, the cells were subjected to Britelite Plus Ultra-High Sensitivity Luminescence Reporter Gene Assay System (Revvity). The Britelite plus Lyophilized Substrate was reconstituted with the given Britelite Plus Reconstitution Buffer. After gently inverting and settling the solution for 5 min, 100 μL of the reconstituted Britelite Substrate solution was added to each well containing 100 μL of cells in the medium. Luminescence was measured with a Varioskan LUX Multimode Microplate Reader precisely after 2 min. Untreated/infected cells were used as baseline control. The inhibitory concentrations of each drug were presented as a percentage of OD value of the control cells. For each assay run, data points were collected in triplicate.

TZM-bl cells = assay: Cell viability assay (CellTiter-Glo 2.0); format: cell-based; details: 48 h
Description: DTG and hEB-DTG prodrug cytotoxicity was measured at different concentrations against TZM-bl reporter cell line in the presence or absence of HIV-WT virus using the CellTiter-Glo™ 2.0 Assay (Promega, WI, USA) according to the manufacturer’s protocol. TZM-bl cells were seeded in the 96-well white plate at a density of 1 × 10^4 cells/well, and after 24 h, the cells were infected with HIV-WT virus and treated with DTG and hEB-DTG in a concentration range (diluted 1:100) from 3 × 10^−1 mg/mL to 3 × 10^−15 mg/mL. After 48 h, cells were subjected to CellTiter-Glo™ 2.0 Assay (Promega). The CellTiter-Glo™ 2.0 Reagent was equilibrated to room temperature and gently mixed. 100 μL of CellTiter-Glo™ 2.0 Reagent was added to each well containing 100 μL of cells in the medium. Contents were shaken in an orbital shaker for 2 min and incubated at room temperature for precisely 10 min, and then luminescence was measured with a Varioskan LUX Multimode Microplate Reader. Untreated/infected cells were used as a baseline control. Viability of cells was presented as a percentage of OD values of the control cells. For each assay run, data points were collected in triplicate.

[2] = Distribution in LN tissue and cells in LNs after i.v. injection (fluorescence microscopy, flow cytometry); format: in vivo; details: in words
Description: Five (5) μM/kg EB, hEB or hEB-DTG were i.v. injected into mice pretreated intraperitoneally with or without 2.5 mg/kg LPS for 24 h. After 24 h, LNs from different sites were collected and their signals of EB were checked under fluorescent microscopy. To evaluate the EB signals in various types of cells, LNs were disrupted mechanically using scissors, digested with a mixture of deoxyribonuclease I (0.3 mg/mL, Sigma-Aldrich) and TL Liberase (0.25 mg/mL, Roche, IN, USA) in serum-free RPMI-1640 at 37 °C for 30 min, and dispersed through a 40 μm cell strainer (BD Biosciences, CA, USA). After red blood cell lysis, live/dead cell discrimination was performed using a Zombie NIR Fixable Viability Kit (BioLegend, CA, USA, dilution: 1/1000) at 4 °C for 30 min in DPBS. Surface staining was performed at 4 °C for 30 min in FACS staining buffer (1 × phosphate-buffered saline/5 % FBS/0.5 % sodium azide) containing designated antibody cocktails (PerCP anti-mouse CD45 antibody, Brilliant Violet 785 anti-mouse CD4 antibody, FITC anti-mouse CD8 antibody, APC anti-mouse CD11b antibody, APC/Cyanine7 anti-mouse F4/80 antibody, Pacific Blue anti-mouse CD19 antibody and AF647 anti-mouse CD27 antibody; dilution: 1/200 for all antibodies). Flow cytometry was performed with LSRII (BD Biosciences) and Aurora (Cytek Biosciences, CA, USA) instruments and analyzed by FlowJo (BD Biosciences). The EB signals in each type of cell were quantified as mentioned above.

[3] = Release of DTG from hEB-DTG (storage stability and in vitro release kinetics, HPLC-MS); format: physicochemical; details: for DTG released (cumulative): PBS

Sequence of BSA (P02769 25-607): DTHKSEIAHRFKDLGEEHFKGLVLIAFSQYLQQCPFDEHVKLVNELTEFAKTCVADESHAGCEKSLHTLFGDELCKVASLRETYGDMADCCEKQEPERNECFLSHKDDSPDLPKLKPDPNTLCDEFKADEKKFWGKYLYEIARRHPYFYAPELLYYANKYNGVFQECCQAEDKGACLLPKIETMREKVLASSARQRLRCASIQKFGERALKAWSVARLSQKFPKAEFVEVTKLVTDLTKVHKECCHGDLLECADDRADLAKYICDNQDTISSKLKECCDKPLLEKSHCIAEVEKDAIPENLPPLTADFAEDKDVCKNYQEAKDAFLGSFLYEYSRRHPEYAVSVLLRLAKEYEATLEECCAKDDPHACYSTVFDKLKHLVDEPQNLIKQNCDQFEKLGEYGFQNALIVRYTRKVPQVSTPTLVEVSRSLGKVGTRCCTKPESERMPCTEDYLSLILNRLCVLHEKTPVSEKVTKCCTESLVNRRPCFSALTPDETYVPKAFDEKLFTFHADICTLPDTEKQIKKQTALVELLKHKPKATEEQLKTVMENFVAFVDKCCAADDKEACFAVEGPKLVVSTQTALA

Cc1cc(-c2ccc(/N=N/c3ccc4c(S(=O)(=O)O)cc(S(=O)(=O)O)c(N)c4c3O)c(C)c2)ccc1N [hEB, half-truncated Evans Blue]
binding affinity for BSA (BSA): retained strong binding affinity

Cc1cc(-c2ccc(NCC(=O)Oc3c4n(cc(C(=O)NCc5ccc(F)cc5F)c3=O)C[C@@H]3OCC[C@@H](C)N3C4=O)c(C)c2)ccc1/N=N/c1ccc2c(S(=O)(=O)O)cc(S(=O)(=O)O)c(N)c2c1O [hEB-DTG]
transport across endothelial cell monolayer (HUVEC monolayer): successfully transported | cellular uptake (HEK293T cells): efficiently internalized | solubility (Aqueous solubility): 9640 µg/mL (≈ 9.62 mM) | released DTG concentration in blood vs free DTG group ([1]; 1 h post-injection): slightly higher | antiviral potency relative to free DTG (HIV-WT virus): slightly less potent | concentrations that potently inhibited HIV-WT replication (HIV-WT virus): ≥ 10 ng/mL | concentrations above which cell viability began to decline (TZM-bl cells): exceeded 1 μg/mL | concentrations with minimal cytotoxicity (TZM-bl cells): below 100 ng/mL | fluorescence signal in LNs ([2]; 24 h post i.v. injection): comparable to that of hEB alone | uptake by immune cell populations in LNs ([2]; flow cytometry): significant EB signals were detected in all cell types analyzed | binding affinity for BSA (BSA): maintained strong binding ability | DTG released (cumulative) ([3]; 37 °C, over 96 h): ~ 60% | DTG released (cumulative) ([3]; 37 °C, within 24 h): ~ 30% | DTG release in serum compared with PBS ([3]; 37 °C, serum): slower | DTG released ([3]; over 30 days at room temperature, storage conditions): 0.83%

C[C@@H]1CCO[C@H]2Cn3cc(C(=O)NCc4ccc(F)cc4F)c(=O)c(O)c3C(=O)N12 [DTG, dolutegravir]
solubility (Aqueous solubility): 40 µg/mL (≈ 0.0954 mM) | clearance ([1]; mouse, serum, iv, single i.v. injection of free DTG 5 mg/kg, one-compartment model, read-out: CL, free DTG in serum (converted)): 0.00411 mL/min | half-life ([1]; mouse, serum, iv, single i.v. injection of free DTG 5 mg/kg, one-compartment model, read-out: t1/2, free DTG in serum (converted)): 3.61 h | concentrations that potently inhibited HIV-WT replication (HIV-WT virus): ≥ 10 ng/mL | concentrations above which cell viability began to decline (TZM-bl cells): exceeded 1 μg/mL | concentrations with minimal cytotoxicity (TZM-bl cells): below 100 ng/mL
